# Assay results published in patent US9708251B2, “Unsaturated fatty alcohol alkoxylates from natural oil metathesis” (Stepan Company, priority 2012, dated 2017).
# Experiments:
# [1] = Emulsion stability testing of nonionic emulsifiers, aromatic solvent series; type: physicochemical; parameters: key to 24 h separation, appearance / 1 h separation, appearance / 1 h separation, amount: C = creamy; CO = creamy oil; O = oil; GC = gritty cream; NS = no separation; OC = oily cream; key to Spon. (spontaneity): G = good; F = fair; P = poor
# Procedure: (§1) Nonionic samples contain a low amount of water (<1%) and are prepared as emulsifiable concentrates with three pesticides using two different solvent systems. In the aromatic solvent series, the nonionic sample replaces Toximul® 8240 (castor oil ethoxylate, 36 POE, Stepan), and in the Hallcomid™ (N,N-dimethylcaprylamide/N,N-dimethylcapramide, Stepan) solvent series, the nonionic sample replaces Ninex® MT-630F.
# Sample preparation: Ninate® 60E (calcium alkylbenzenesulfonate, Stepan) and the test sample are stirred until homogeneous. […] Controls 1-3 are made by using Toximul 8240 in the amounts indicated instead of the nonionic sample.
# Formulations: • 1. Bifenthrin, 240 g/L (2.99 g), Aromatic 100 (ExxonMobil, 8.05 g), Ninate 60E (0.38 g), and nonionic sample or Toximul 8240 (0.58 g). • 2. 2,4-D ester, 480 g/L (8.90 g), Exxsol® D-110 (ExxonMobil, 2.50 g), Ninate 60E (0.36 g), and nonionic sample or Toximul 8240 (0.24 g). • 3. Tebuconazole, 360 g/L (4.45 g), N-methyl-2-pyrrolidone (6.35 g), Ninate 60E (0.48 g), nonionic sample or Toximul 8240 (0.72 g).
# (§2) Emulsion Stability Testing
# (§3) A Mohr pipette is used to feed pesticide/surfactant concentrates to each cylinder.
# [2] = 0.4 wt. % active, 342 ppm hard water
# Procedure: Surfactant solution (100 mL) is carefully transferred to a stainless-steel mixing cup, then mixed at high speed (27K rpm) using a Hamilton Beach mixer for 10 s. The contents are quickly poured into a 100-mL graduated cylinder to the 100-mL mark, and a stopwatch is immediately started. The amount of liquid settling in the cylinder is recorded every 15 s for 4 min. Less liquid drained indicates greater foam stability.
# [3] = Emulsion stability testing of nonionic emulsifiers, Hallcomid solvent series; type: physicochemical; parameters: key: C = creamy; CO = creamy oil; O = oil; GC = gritty cream; NS = no separation; OC = oily cream; settings: Bifenthrin 240 g/L in Hallcomid M-8-10, 34 ppm water
# Procedure: as §1
# (§4) Hallcomid Solvent Series.
# (§5) Sample preparation: The surfactants are combined and stirred until homogeneous, with the nonionic sample melted if needed prior to combination. Controls 1-3 are made by using Ninex MT-630F in the amounts indicated instead of the nonionic sample.
# as §2, §3
# [4] = as above; type: physicochemical; parameters: key to 24 h separation, appearance / 1 h separation, appearance / 1 h separation, amount: C = creamy; CO = creamy oil; O = oil; GC = gritty cream; NS = no separation; OC = oily cream; key to Spon. (spontaneity): G = good; F = fair; P = poor
# Procedure: as §1, §4, §5, §2, §3
# [5] = Surfactant phase behavior study (cross-polarized microscopy); type: physicochemical; settings: room temperature, in deionized water
# Procedure: Phase behavior is observed using an Olympus BH-2 cross-polarized microscope at 100-400× and room temperature (20° C. to 22° C.). The inventive monounsaturated alcohol ethoxylates are compared with their saturated analogs.
# Samples are prepared by diluting the most concentrated product gradually with deionized water. When the surfactant concentration approaches a phase transition, the concentration is varied at 2-4% intervals to estimate the phase boundary. The actives level reported in Table 4 for each phase boundary is within ±5% of the true boundary.
# Samples are loaded between a microscope slide and cover glass and are allowed to equilibrate before observation. Microscopic texture is analyzed and used to determine the phase. For some samples, an AR 2000 rheometer (TA Instruments) is used to measure viscosity at 25° C. to further verify phase behavior.
# [6] = 2,4-D ester 480 g/L in Exxsol D-110, 34 ppm water
# [7] = 2,4-D ester 480 g/L in Exxsol D-110, 1000 ppm water
# [8] = Bifenthrin 240 g/L in Aromatic 100, 34 ppm water
# [9] = Bifenthrin 240 g/L in Aromatic 100, 1000 ppm water
# [10] = Tebuconazole 360 g/L in N-methyl-2-pyrrolidone, 34 ppm water
# [11] = Tebuconazole 360 g/L in N-methyl-2-pyrrolidone, 1000 ppm water
# [12] = 2,4-D diester 480 g/L in Hallcomid M-8-10, 34 ppm water
# [13] = 2,4-D diester 480 g/L in Hallcomid M-8-10, 1000 ppm water
# [14] = Bifenthrin 240 g/L in Hallcomid M-8-10, 34 ppm water
# [15] = Bifenthrin 240 g/L in Hallcomid M-8-10, 1000 ppm water
# [16] = Tebuconazole 360 g/L in Hallcomid M-8-10, 34 ppm water
# [17] = Tebuconazole 360 g/L in Hallcomid M-8-10, 1000 ppm water
smiles,measurement,setting,value
C=CCCCCCCCCOCCOCCOCCOCCOCCOCCOCCO [A10-13],"1 h separation, amount",[1]; [6],2.8 mL
same,"1 h separation, appearance",[1]; [6],C
same,"24 h separation, amount",[1]; [6],4.6 mL
same,"24 h separation, appearance",[1]; [6],C
same,Spon. (spontaneity),[1]; [6],G
same,"1 h separation, amount",[1]; [7],3.9 mL
same,"1 h separation, appearance",[1]; [7],CO
same,"24 h separation, amount",[1]; [7],"1 O, 4 CO"
same,Spon. (spontaneity),[1]; [7],F
same,"1 h separation, amount",[1]; [8],3 mL
same,"1 h separation, appearance",[1]; [8],C
same,"24 h separation, amount",[1]; [8],5.8 mL
same,"24 h separation, appearance",[1]; [8],C
same,Spon. (spontaneity),[1]; [8],F
same,"1 h separation, amount",[1]; [9],NS
same,"24 h separation, amount",[1]; [9],2.6 mL
same,"24 h separation, appearance",[1]; [9],O
same,Spon. (spontaneity),[1]; [9],G
same,"1 h separation, amount",[1]; [10],"1.5 CO, 0.5 C"
same,"24 h separation, amount",[1]; [10],2.8 mL
same,"24 h separation, appearance",[1]; [10],CO
same,Spon. (spontaneity),[1]; [10],P
same,"1 h separation, amount",[1]; [11],2.1 mL
same,"1 h separation, appearance",[1]; [11],CO
same,"24 h separation, amount",[1]; [11],3.5 mL
same,"24 h separation, appearance",[1]; [11],CO
same,Spon. (spontaneity),[1]; [11],P
same,Liquid volume at drain time 0.5 min,[2],0.50 mL
same,Liquid volume at drain time 1.0 min,[2],2.25 mL
same,Liquid volume at drain time 1.5 min,[2],4.00 mL
same,Liquid volume at drain time 2.0 min,[2],6.00 mL
same,Liquid volume at drain time 2.5 min,[2],7.50 mL
same,Liquid volume at drain time 3.0 min,[2],9.50 mL
same,Liquid volume at drain time 3.5 min,[2],11.50 mL
same,Liquid volume at drain time 4.0 min,[2],13.25 mL
same,"24 h separation, amount",[3],NS
same,"1 h separation, amount",[4]; [12],4.5 mL
same,"1 h separation, appearance",[4]; [12],C
same,"24 h separation, amount",[4]; [12],8.2 mL
same,"24 h separation, appearance",[4]; [12],C
same,Spon. (spontaneity),[4]; [12],P
same,"1 h separation, amount",[4]; [13],5 mL
same,"1 h separation, appearance",[4]; [13],C
same,"24 h separation, amount",[4]; [13],7.8 mL
same,"24 h separation, appearance",[4]; [13],C
same,Spon. (spontaneity),[4]; [13],F
same,"1 h separation, amount",[4]; [14],NS
same,Spon. (spontaneity),[4]; [14],G
same,"1 h separation, amount",[4]; [15],6.4 mL
same,"1 h separation, appearance",[4]; [15],CO
same,"24 h separation, amount",[4]; [15],6 mL
same,"24 h separation, appearance",[4]; [15],O
same,Spon. (spontaneity),[4]; [15],F
same,"1 h separation, amount",[4]; [16],2.1 mL
same,"1 h separation, appearance",[4]; [16],C
same,"24 h separation, amount",[4]; [16],4.9 mL
same,"24 h separation, appearance",[4]; [16],C
same,Spon. (spontaneity),[4]; [16],F
same,"1 h separation, amount",[4]; [17],3 mL
same,"1 h separation, appearance",[4]; [17],C
same,"24 h separation, amount",[4]; [17],5.5 mL
same,"24 h separation, appearance",[4]; [17],C
same,Spon. (spontaneity),[4]; [17],F
same,Isotropic Clear phase region,[5],0-100 % Actives Level
